Columns and labels:
Assay type in all cases: cell-based
B16-F0 (murine melanoma) = experiment: In vitro cytotoxicity test, SRB assay, 72 h incubation with compound; details: for IC50: Mus musculus, B16F0, B16-F0 murine melanoma, SRB, 72 h; for SI B16-F0: selectivity coefficient, BALB/3T3 versus B16-F0
Experimental: (§1) In vitro cytotoxicity tests were performed according to the procedure described below. […] The solvent for further dilutions was a culture medium.
(§2) The experiments were repeated at least 3 times.

Hs294T (human melanoma) = experiment: as above; details: for IC50: Hs 294T, Hs294T human melanoma, SRB, 72 h; for SI Hs294T: selectivity coefficient, BALB/3T3 versus Hs294T
Experimental: as §1, §2

[1] = test system: LoVo (drug-sensitive human colon cancer); experiment: as above; details: for IC50: LoVo drug-sensitive human colon cancer, SRB, 72 h; for SI LoVo: selectivity coefficient, BALB/3T3 versus LoVo
Experimental: as §1, §2

[2] = test system: LoVo/DX (drug-resistant human colon cancer); experiment: as above; details: for IC50: LoVo/DX drug-resistant human colon cancer, SRB, 72 h; for RI: drug resistance coefficient, LoVo/DX versus LoVo, 4320 min; for SI LoVo/DX: selectivity coefficient, BALB/3T3 versus LoVo/DX
Experimental: as §1, §2

[3] = test system: MCF-7 (human breast cancer); experiment: as above; details: for IC50: MCF7, MCF-7 human breast cancer, SRB, 72 h; for SI MCF-7: selectivity coefficient, BALB/3T3 versus MCF-7
Experimental: as §1, §2

[4] = test system: MV-4-11 (human biphenotypic leukaemia); experiment: In vitro cytotoxicity test, MTT assay, 72 h incubation with compound; details: for IC50: MV4-11, MV-4-11 human biphenotypic leukaemia, MTT, 72 h; for SI MV-4-11: selectivity coefficient, BALB/3T3 versus MV-4-11
Experimental: as §1, §2
After 4 hours of incubation at 37° C., 80 μL of lysis buffer was added to each well.

[5] = In vitro cytotoxicity test on normal cells, SRB assay, 72 h incubation with compound; details: mouse, balb/3t3 cells, normal murine fibroblasts, read-out: IC50 BALB/3T3
Experimental: (§3) Normal murine BALB/3T3 fibroblasts were also used in the tests for determining the selectivity coefficients of the compounds used in the assays.
as §1, §2

cancer cells = experiment: In vitro cytotoxicity tests, summary statements over the cancer cell lines; details: in words; for anti-proliferative effect compared to the parent compound: versus salinomycin
Experimental: The following cancer cell lines were used in in vitro studies: • B16-F0 (murine melanoma), • Hs294T (human melanoma), • LoVo (drug-sensitive human colon cancer), • LoVo/DX (drug-resistant human colon cancer), • MCF-7 (human breast cancer), • MV-4-11 (human biphenotypic leukaemia).
as §3
In vitro cytotoxicity tests were performed according to the procedure described below. Stock solutions of the test compounds at 10 mg/mLh were prepared for each experiment ex tempore by dissolving 1 mg of the preparation in 100 μL of dimethylsulfoxide (DMSO). The solvent for further dilutions was a culture medium. Compounds were tested at concentration ranges of 100 to 0.00001 μg/mLh (for the B16-F0 and Hs294T cell lines) and 100 to 0.1 μg/mLh (for the LoVo, LoVo/DX, MCF-7, MV-4-11 and BALB/3T3 cell lines).
An MTT tetrazolium salt reduction assay [as per: Wietrzyk et al., Anti-cancer drugs, 2007, 18, 447-457] was performed for MV-4-11 cells (human biphenotypic leukaemia) to evaluate the metabolic activity of cancer cells. On the other hand, to determine the anti-proliferative activity of all tested compounds against B16-F0 (murine melanoma), Hs294T (human melanoma), LoVo (drug-sensitive human colon cancer), LoVo/DX (drug-resistant human colon cancer), MCF-7 (human breast cancer) and BALB/3T3 (normal mouse fibroblasts) cell lines, the SRB colorimetric assay was used [as per: Skehan et al., Journal of the National Cancer Institute, 1990, 82, 1107-1112] measuring the inhibition of target cell proliferation based on the amount of cellular protein measured. In each experiment, samples containing specific concentrations of the test compound were applied to 96-well plates in triplicate. The experiments were repeated at least 3 times.
When calculating the mean absorbance value for a set of wells (untreated cells, cells treated with a specific compound at a specific concentration, control of medium alone), outliers were rejected using a 10% coefficient of variation CV.

| SMILES | IC50 (B16-F0 (murine melanoma)) [µM] | SI B16-F0 (B16-F0 (murine melanoma)) | IC50 (Hs294T (human melanoma)) [µM] | SI Hs294T (Hs294T (human melanoma)) | IC50 [1] [µM] | SI LoVo [1] | IC50 [2] [µM] | RI [2] | SI LoVo/DX [2] | IC50 [3] [µM] | SI MCF-7 [3] | IC50 [4] [µM] | SI MV-4-11 [4] | CC50 at 72 h [5] [µM] | anti-proliferative effect compared to the parent compound (cancer cells) | preferred effect against a type of cancer cells (cancer cells) |
| --- | --- | --- | --- | --- | --- | --- | --- | --- | --- | --- | --- | --- | --- | --- | --- | --- |
| CC[C@@H](C(=O)[C@@H](C)[C@@H](O)[C@H](C)[C@@H]1O[C@@H]([C@@H](CC)C(=O)O)CC[C@@H]1C)[C@H]1O[C@]2(C=C[C@@H](NC(=O)C(C)C)[C@]3(CC[C@@](C)([C@H]4CC[C@](O)(CC)[C@H](C)O4)O3)O2)[C@H](C)C[C@@H]1C [(10), C20-dehydroxy-C20-aminosalinomycin N-isobutyramide] | 0.07 | 50.3 | 0.02 | 176.0 | 0.67 | 5.3 | 0.19 | 0.3 | 18.5 | 0.7 | 5.0 | 0.07 | 50.3 | 3.52 | several times more potent | – |
| C#CCOC(=O)N[C@@H]1C=C[C@]2(O[C@H]([C@@H](CC)C(=O)[C@@H](C)[C@@H](O)[C@H](C)[C@@H]3O[C@@H]([C@@H](CC)C(=O)O)CC[C@@H]3C)[C@@H](C)C[C@H]2C)O[C@@]12CC[C@@](C)([C@H]1CC[C@](O)(CC)[C@H](C)O1)O2 [(22), C20-dehydroxy-C20-aminosalinomycin N-propargylcarbamate] | 0.02 | 66.0 | 0.0041 | 322.0 | 0.3 | 4.4 | 0.05 | 0.2 | 26.4 | 0.34 | 3.9 | 0.05 | 26.4 | 1.32 | tens of times more potent | – |
| CC[C@@H](C(=O)[C@@H](C)[C@@H](O)[C@H](C)[C@@H]1O[C@@H]([C@@H](CC)C(=O)O)CC[C@@H]1C)[C@H]1O[C@]2(C=C[C@@H](NC(=O)c3ccccc3)[C@]3(CC[C@@](C)([C@H]4CC[C@](O)(CC)[C@H](C)O4)O3)O2)[C@H](C)C[C@@H]1C [(15), C20-dehydroxy-C20-aminosalinomycin N-benzamide] | 0.02 | 81.5 | 0.02 | 81.5 | 0.28 | 5.1 | 0.05 | 0.2 | 32.6 | 0.28 | 5.8 | 0.06 | 27.2 | 1.63 | several times more potent | – |
| CCCCNC(=O)N[C@@H]1C=C[C@]2(O[C@H]([C@@H](CC)C(=O)[C@@H](C)[C@@H](O)[C@H](C)[C@@H]3O[C@@H]([C@@H](CC)C(=O)[O-])CC[C@@H]3C)[C@@H](C)C[C@H]2C)O[C@@]12CC[C@@](C)([C@H]1CC[C@](O)(CC)[C@H](C)O1)O2.[Na+] [(24), butylurea of C20-dehydroxy-C20-aminosalinomycin] | 0.05 | 16.0 | 0.04 | 20.0 | 0.07 | 11.4 | 0.11 | 1.6 | 7.3 | 0.4 | 2.0 | 0.001 | 800.0 | 0.8 | – | – |
| CCCNC(=O)N[C@@H]1C=C[C@]2(O[C@H]([C@@H](CC)C(=O)[C@@H](C)[C@@H](O)[C@H](C)[C@@H]3O[C@@H]([C@@H](CC)C(=O)[O-])CC[C@@H]3C)[C@@H](C)C[C@H]2C)O[C@@]12CC[C@@](C)([C@H]1CC[C@](O)(CC)[C@H](C)O1)O2.[Na+] [(23), propylurea of C20-dehydroxy-C20-aminosalinomycin] | 0.07 | 22.0 | 0.01 | 154.0 | 0.06 | 25.7 | 0.15 | 2.5 | 10.3 | 0.37 | 4.2 | 0.0011 | 1400.0 | 1.54 | – | – |
| CC[C@@H](C(=O)[C@@H](C)[C@@H](O)[C@H](C)[C@@H]1O[C@@H]([C@@H](CC)C(=O)O)CC[C@@H]1C)[C@H]1O[C@]2(C=C[C@@H](NC(=O)CCCCl)[C@]3(CC[C@@](C)([C@H]4CC[C@](O)(CC)[C@H](C)O4)O3)O2)[C@H](C)C[C@@H]1C [(12), C20-dehydroxy-C20-aminosalinomycin N-4-chlorobutyramide] | 0.56 | 30.5 | 0.07 | 243.9 | 0.63 | 27.1 | 1.55 | 2.5 | 11.0 | 0.9 | 19.0 | 0.2 | 85.4 | 17.1 | – | – |
| CC[C@@H](C(=O)[C@@H](C)[C@@H](O)[C@H](C)[C@@H]1O[C@@H]([C@@H](CC)C(=O)O)CC[C@@H]1C)[C@H]1O[C@]2(C=C[C@@H](N)[C@]3(CC[C@@](C)([C@H]4CC[C@](O)(CC)[C@H](C)O4)O3)O2)[C@H](C)C[C@@H]1C [(3), C20-aminosalinomycin, reference compound] | 9.44 | 7.0 | 9.73 | 6.8 | 33.1 | 2.0 | 20.5 | 0.6 | 3.2 | 34.9 | 1.9 | 5.92 | 11.2 | 66.4 | – | – |
| CC[C@@H](C(=O)[C@@H](C)[C@@H](O)[C@H](C)[C@@H]1O[C@@H]([C@@H](CC)C(=O)O)CC[C@@H]1C)[C@H]1O[C@]2(C=C[C@@H](NC(=O)OCC(C)(C)C)[C@]3(CC[C@@](C)([C@H]4CC[C@](O)(CC)[C@H](C)O4)O3)O2)[C@H](C)C[C@@H]1C [(20), C20-dehydroxy-C20-aminosalinomycin N-neopentylcarbamate] | 0.64 | 5.1 | 0.28 | 11.6 | 0.82 | 4.0 | 0.64 | 0.8 | 5.1 | 2.38 | 1.4 | 0.36 | 9.0 | 3.24 | – | – |
| CC[C@@H](C(=O)[C@@H](C)[C@@H](O)[C@H](C)[C@@H]1O[C@@H]([C@@H](CC)C(=O)[O-])CC[C@@H]1C)[C@H]1O[C@]2(C=C[C@@H](NC(=O)NCCCCl)[C@]3(CC[C@@](C)([C@H]4CC[C@](O)(CC)[C@H](C)O4)O3)O2)[C@H](C)C[C@@H]1C.[Na+] [(25), 3-chloropropylurea of C20-dehydroxy-C20-aminosalinomycin] | 0.01 | 135.0 | 0.0056 | 241.1 | 0.02 | 67.5 | 0.22 | 11.0 | 6.1 | 0.18 | 7.5 | 0.0003 | 4500.0 | 1.35 | tens of times more potent | preferred effect against biphenotypic leukaemia cells |
